Results taken from the NIST ThermoML archive (doi:10.1021/acs.jced.5b00806).

Tests used:
[1] = wn = mass fraction of the nth substance listed; conditions: 98 kPa, Liquid, Capillary tube (Ostwald / Ubbelohde) method
[2] = Liquid; for mass density: 101.33 kPa, Pycnometric method; for vapor or sublimation pressure: Langmuir
[3] = xn = mol fraction of the nth substance listed; conditions: 98 kPa, Liquid, magnetic suspension balance, x2 = 0.55

CCCCn1cc[n+](C)c1.F[B-](F)(F)F [1-butyl-3-methylimidazolium tetrafluoroborate] + O
kinematic viscosity [m2/s], [1]
Conditions	w2 = 0.0033	w2 = 0.0097	w2 = 0.0181	w2 = 0.0258	w2 = 0.0345	w2 = 0.0488	w2 = 0.0552	w2 = 0.066
303.2 K	5.78e-05	4.53e-05	3.44e-05	2.89e-05	2.26e-05	1.64e-05	1.52e-05	1.39e-05
313.2 K	3.76e-05	3.02e-05	2.37e-05	2.02e-05	1.62e-05	1.2e-05	1.12e-05	1.02e-05
323.2 K	2.59e-05	2.14e-05	1.73e-05	1.48e-05	1.22e-05	9.2e-06	8.6e-06	7.9e-06
333.2 K	1.86e-05	1.54e-05	1.28e-05	1.13e-05	9.4e-06	7.2e-06	6.8e-06	6.2e-06
343.2 K	1.39e-05	1.21e-05	1e-05	8.8e-06	7.5e-06	5.9e-06	5.5e-06	5.1e-06
353.2 K	1.08e-05	9.8e-06	8e-06	7.2e-06	6.2e-06	4.9e-06	4.6e-06	4.2e-06
363.2 K	8.6e-06	7.7e-06	6.5e-06	5.8e-06	5.1e-06	4.1e-06	3.9e-06	3.6e-06

COP(=O)([O-])OC.Cn1cc[n+](C)c1 [1,3-dimethylimidazolium dimethylphosphate]
[2]
Conditions	mass density [kg/m3]
293.2 K	1260
303.2 K	1253
313.2 K	1246
323.2 K	1239
333.2 K	1232
343.2 K	1225
353.2 K	1218
363.2 K	1211

CCCCn1cc[n+](C)c1.F[B-](F)(F)F [1-butyl-3-methylimidazolium tetrafluoroborate]
[2]
Conditions	vapor or sublimation pressure [kPa]
396.3 K	7.2e-10
403.7 K	9.9e-10
412.1 K	2.3e-09
413.6 K	1.8e-09
415.4 K	2.8e-09
421.6 K	4.3e-09
424.9 K	6.3e-09
437.3 K	1.9e-08
437.6 K	1.5e-08
446.4 K	3.7e-08
447.3 K	4e-08
447.7 K	3.9e-08
457.2 K	8.3e-08
457.5 K	8.7e-08
464.7 K	1.5e-07
465 K	1.7e-07
465.5 K	1.6e-07

CCOS(=O)(=O)[O-].CCn1cc[n+](C)c1 [1-ethyl-3-methylimidazolium ethyl sulfate] + O
kinematic viscosity [m2/s], [1]
Conditions	w2 = 0.0038	w2 = 0.009	w2 = 0.0164	w2 = 0.0239	w2 = 0.0359	w2 = 0.0483	w2 = 0.0563	w2 = 0.066
303.2 K	5.5e-05	5.06e-05	4.43e-05	4.03e-05	3.57e-05	3.26e-05	3.13e-05	2.99e-05
313.2 K	3.74e-05	3.56e-05	3.11e-05	2.86e-05	2.51e-05	2.3e-05	2.21e-05	2.11e-05
323.2 K	2.69e-05	2.63e-05	2.34e-05	2.17e-05	1.99e-05	1.69e-05	1.63e-05	1.55e-05
333.2 K	2.01e-05	1.9e-05	1.8e-05	1.67e-05	1.52e-05	1.31e-05	1.24e-05	1.18e-05
343.2 K	1.54e-05	1.49e-05	1.41e-05	1.35e-05	1.21e-05	1.05e-05	9.8e-06	9.3e-06
353.2 K	1.21e-05	1.17e-05	1.13e-05	1.11e-05	1.01e-05	9e-06	8.1e-06	7.6e-06
363.2 K	9.8e-06	9.4e-06	9.1e-06	8.8e-06	8.4e-06	8e-06	7e-06	6.5e-06

CCOCCOCCOS(=O)(=O)[O-].CCn1cc[n+](C)c1 [1-ethyl-3-methylimidazolium 2-(2-ethoxyethoxy)ethylsulfate] + O
kinematic viscosity [m2/s], [1]
Conditions	w2 = 0.0019	w2 = 0.0085	w2 = 0.0195	w2 = 0.0251	w2 = 0.0353	w2 = 0.0495	w2 = 0.0569	w2 = 0.0663
303.2 K	0.000128	0.000103	7.64e-05	6.69e-05	5.26e-05	4.17e-05	3.84e-05	3.34e-05
313.2 K	7.46e-05	6.17e-05	4.74e-05	4.22e-05	3.38e-05	2.73e-05	2.52e-05	2.24e-05
323.2 K	4.76e-05	4.02e-05	3.17e-05	2.83e-05	2.31e-05	1.92e-05	1.76e-05	1.58e-05
333.2 K	3.23e-05	2.78e-05	2.23e-05	2.02e-05	1.67e-05	1.41e-05	1.29e-05	1.18e-05
343.2 K	2.32e-05	2.02e-05	1.65e-05	1.51e-05	1.26e-05	1.08e-05	9.8e-06	9.1e-06
353.2 K	1.81e-05	1.53e-05	1.26e-05	1.17e-05	9.9e-06	8.5e-06	7.8e-06	7.3e-06
363.2 K	1.34e-05	1.16e-05	1e-05	9.3e-06	7.9e-06	6.9e-06	6.3e-06	5.9e-06

COP(=O)([O-])OC.Cn1cc[n+](C)c1 [1,3-dimethylimidazolium dimethylphosphate] + O
kinematic viscosity [m2/s], [1]
Conditions	w2 = 0.0031	w2 = 0.0085	w2 = 0.019	w2 = 0.0237	w2 = 0.0341	w2 = 0.0493	w2 = 0.0587	w2 = 0.0655
303.2 K	0.000137	0.000128	0.000114	0.000107	9.53e-05	7.95e-05	7.22e-05	6.73e-05
313.2 K	7.79e-05	7.35e-05	6.62e-05	6.27e-05	5.63e-05	4.77e-05	4.37e-05	4.09e-05
323.2 K	4.84e-05	4.59e-05	4.18e-05	3.98e-05	3.6e-05	3.09e-05	2.85e-05	2.68e-05
333.2 K	3.22e-05	3.07e-05	2.81e-05	2.69e-05	2.45e-05	2.13e-05	1.97e-05	1.86e-05
343.2 K	2.27e-05	2.17e-05	2e-05	1.92e-05	1.75e-05	1.53e-05	1.43e-05	1.35e-05
353.2 K	1.67e-05	1.6e-05	1.48e-05	1.42e-05	1.31e-05	1.15e-05	1.07e-05	1.02e-05
363.2 K	1.27e-05	1.22e-05	1.17e-05	1.09e-05	1.01e-05	8.9e-06	8.5e-06	8e-06

CCn1cc[n+](C)c1.CS(=O)(=O)[O-] [1-ethyl-3-methylimidazolium methanesulfonate]
[2]
Conditions	mass density [kg/m3]
293.2 K	1244
303.2 K	1237
313.2 K	1230
323.2 K	1223
333.2 K	1217
343.2 K	1212
353.2 K	1205
363.2 K	1198

CCn1cc[n+](C)c1.CS(=O)(=O)[O-] [1-ethyl-3-methylimidazolium methanesulfonate] + O
kinematic viscosity [m2/s], [1]
Conditions	w2 = 0.0024	w2 = 0.0028	w2 = 0.01	w2 = 0.0191	w2 = 0.0254	w2 = 0.0323	w2 = 0.0358	w2 = 0.047	w2 = 0.0589	w2 = 0.0615
303.2 K	9.34e-05	9.45e-05	7.58e-05	6.2e-05	5.53e-05	4.69e-05	4.51e-05	3.69e-05	3.06e-05	2.95e-05
313.2 K	5.57e-05	5.64e-05	4.66e-05	3.91e-05	3.5e-05	3.06e-05	2.96e-05	2.48e-05	2.09e-05	2.02e-05
323.2 K	3.74e-05	3.65e-05	3.23e-05	2.65e-05	2.39e-05	2.1e-05	2.09e-05	1.77e-05	1.49e-05	1.46e-05
333.2 K	2.57e-05	–	2.26e-05	–	1.76e-05	–	1.53e-05	1.31e-05	–	1.11e-05
343.2 K	1.86e-05	–	1.66e-05	–	1.32e-05	–	1.16e-05	1.01e-05	–	8.5e-06
353.2 K	1.39e-05	–	1.24e-05	–	1.02e-05	–	9.1e-06	8e-06	–	6.8e-06
363.2 K	1.09e-05	–	9.7e-06	–	8.1e-06	–	7.3e-06	6.5e-06	–	5.6e-06

[3]
Conditions	binary diffusion coefficient [m2/s]
303.2 K	2.1e-10
313.2 K	3.1e-10
333.2 K	5.35e-10
353.2 K	8.3e-10
373.2 K	1.17e-09

CCOCCOCCOS(=O)(=O)[O-].CCn1cc[n+](C)c1 [1-ethyl-3-methylimidazolium 2-(2-ethoxyethoxy)ethylsulfate]
[2]
Conditions	mass density [kg/m3]	vapor or sublimation pressure [kPa]
293.2 K	1215	–
303.2 K	1207	–
313.2 K	1200	–
323.2 K	1193	–
333.2 K	1185	–
343.2 K	1178	–
353.2 K	1170	–
363.2 K	1164	–
419.7 K	–	3.4e-09
429 K	–	3.8e-09
430.1 K	–	5.6e-09
430.7 K	–	4.9e-09
436.4 K	–	1.3e-08
438.3 K	–	8.7e-09
438.4 K	–	1.1e-08
438.5 K	–	1.1e-08
440.2 K	–	1.4e-08
445.7 K	–	2.6e-08
445.8 K	–	2.5e-08
448.1 K	–	2.1e-08
